These results are taken from ChEMBL document CHEMBL1136470, “Rational design, synthesis and structure-activity relationships of a cyclic succinate series of TNF-alpha converting enzyme inhibitors. Part 1: lead identification” (Bioorg Med Chem Lett, 2003).

SMILES strings stand for the structures. A value given as a limit tells only on which side of the number the result lay.

Matrix metalloproteinase-9, sequence (P14780 whole entry): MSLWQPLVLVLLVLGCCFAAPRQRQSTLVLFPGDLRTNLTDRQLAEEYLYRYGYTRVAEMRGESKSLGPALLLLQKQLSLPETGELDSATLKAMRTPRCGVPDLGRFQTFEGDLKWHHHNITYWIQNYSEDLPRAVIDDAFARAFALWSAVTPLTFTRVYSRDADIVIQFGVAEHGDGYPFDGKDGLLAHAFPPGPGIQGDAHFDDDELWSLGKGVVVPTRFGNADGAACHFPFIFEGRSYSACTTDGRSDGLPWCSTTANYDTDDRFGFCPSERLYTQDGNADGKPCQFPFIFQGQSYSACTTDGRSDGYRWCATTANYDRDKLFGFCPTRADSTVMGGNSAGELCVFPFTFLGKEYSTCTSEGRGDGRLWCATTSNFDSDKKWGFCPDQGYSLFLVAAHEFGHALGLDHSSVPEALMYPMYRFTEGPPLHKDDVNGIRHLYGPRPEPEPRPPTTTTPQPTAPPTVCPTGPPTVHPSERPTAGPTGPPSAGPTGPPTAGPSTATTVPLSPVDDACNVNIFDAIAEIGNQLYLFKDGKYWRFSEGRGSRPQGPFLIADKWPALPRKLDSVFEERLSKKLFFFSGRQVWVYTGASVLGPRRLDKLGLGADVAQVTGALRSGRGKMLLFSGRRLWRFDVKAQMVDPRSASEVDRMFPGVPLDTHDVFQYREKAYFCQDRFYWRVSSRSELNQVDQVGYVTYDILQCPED

The target of one test is Disintegrin and metalloproteinase domain-containing protein 17 (Sus scrofa, UniProt O77636). Briefly: Inhibition of porcine TACE.
Disintegrin and metalloproteinase domain-containing protein 17, sequence (O77636 whole entry, the tested form may be a part): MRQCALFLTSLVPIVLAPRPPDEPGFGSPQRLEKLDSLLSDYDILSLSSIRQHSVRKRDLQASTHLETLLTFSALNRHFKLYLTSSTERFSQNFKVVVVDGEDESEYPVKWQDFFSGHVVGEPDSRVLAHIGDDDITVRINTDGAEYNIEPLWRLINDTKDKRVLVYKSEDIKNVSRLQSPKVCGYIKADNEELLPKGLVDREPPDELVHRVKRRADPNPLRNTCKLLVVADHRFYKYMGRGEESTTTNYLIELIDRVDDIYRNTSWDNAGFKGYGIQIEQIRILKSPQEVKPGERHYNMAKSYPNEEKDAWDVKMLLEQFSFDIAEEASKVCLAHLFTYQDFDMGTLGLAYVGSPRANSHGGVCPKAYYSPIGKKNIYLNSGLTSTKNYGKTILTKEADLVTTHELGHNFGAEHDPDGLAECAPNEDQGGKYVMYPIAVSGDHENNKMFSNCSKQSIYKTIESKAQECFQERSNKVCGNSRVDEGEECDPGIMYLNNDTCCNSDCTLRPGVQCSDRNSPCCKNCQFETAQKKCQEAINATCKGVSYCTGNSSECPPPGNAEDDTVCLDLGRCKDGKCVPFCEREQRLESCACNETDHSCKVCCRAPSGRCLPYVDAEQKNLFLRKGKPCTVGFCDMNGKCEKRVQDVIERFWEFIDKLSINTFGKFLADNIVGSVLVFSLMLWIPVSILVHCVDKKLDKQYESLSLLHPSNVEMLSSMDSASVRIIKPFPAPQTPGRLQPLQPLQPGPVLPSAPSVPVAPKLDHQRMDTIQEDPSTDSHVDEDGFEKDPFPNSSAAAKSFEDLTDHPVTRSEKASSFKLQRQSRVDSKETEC
With `O=C(NO)[C@H]1CCC[C@@H]1C(=O)Nc1ccc(Cc2ccncc2)cc1`, the IC50 amounted to 210 nM.
As for `O=C(NO)[C@H]1CCCC[C@@H]1C(=O)Nc1ccc(C#Cc2ccc3ncccc3c2)cc1`, inhibition was half-maximal at 7240 nM (IC50).
In the case of `O=C(NO)[C@H]1CCCC[C@@H]1C(=O)Nc1ccc(OCc2ccccc2)cc1`, the IC50 is 89 nM.
With `O=C(NO)[C@H]1CCCC[C@@H]1C(=O)Nc1ccc(COc2ccnc3ccccc23)cc1`, the IC50 was determined as 8 nM.
For `O=C(NO)[C@H]1CCC[C@@H]1C(=O)Nc1ccc(COc2ccnc3ccccc23)cc1`, the IC50 was 39 nM.
On the same count and under the same terms, the value for `O=C(NO)[C@H]1CCC[C@@H]1C(=O)Nc1ccc(OCc2ccccc2)cc1` was 110 nM.
The same measure, in the same setting: with `O=C(NO)[C@H]1CCCC[C@@H]1C(=O)Nc1ccc(COc2cccc3ncccc23)cc1` the figure was 45 nM.
Regarding `O=C(NO)[C@H]1CCC[C@@H]1C(=O)Nc1ccc(OCc2cc(Cl)cc(Cl)c2)cc1`, the IC50 was 53 nM.
On the same count and under the same terms, the value for `O=C(NO)[C@H]1CCCC[C@@H]1C(=O)Nc1ccc(COc2ccc3ncccc3c2)cc1` was 56 nM; that for `O=C(NO)[C@H]1CCC[C@@H]1C(=O)Nc1ccc(OCc2ccncc2)cc1` was 620 nM.

The next test concerns the target T1, Interstitial collagenase (Homo sapiens, UniProt P03956).
T1 sequence (P03956 whole entry): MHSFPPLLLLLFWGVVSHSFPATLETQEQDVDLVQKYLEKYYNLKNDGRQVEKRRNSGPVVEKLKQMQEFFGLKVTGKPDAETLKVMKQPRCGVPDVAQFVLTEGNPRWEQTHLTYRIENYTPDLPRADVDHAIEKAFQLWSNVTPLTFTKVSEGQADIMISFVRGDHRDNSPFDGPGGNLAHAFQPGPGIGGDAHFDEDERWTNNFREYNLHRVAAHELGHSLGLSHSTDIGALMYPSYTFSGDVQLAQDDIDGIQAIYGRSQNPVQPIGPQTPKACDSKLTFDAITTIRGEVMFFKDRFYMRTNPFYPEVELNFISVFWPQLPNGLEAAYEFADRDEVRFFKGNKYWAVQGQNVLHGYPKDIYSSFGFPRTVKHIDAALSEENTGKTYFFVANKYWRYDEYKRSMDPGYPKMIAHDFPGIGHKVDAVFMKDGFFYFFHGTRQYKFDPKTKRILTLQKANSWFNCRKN
The test is described as follows: Inhibition of matrix metalloprotease-1 (MMP-1).
Turning to `O=C(NO)[C@H]1CCC[C@@H]1C(=O)Nc1ccc(Cc2ccncc2)cc1`, the Ki was over 4.95 µM.
Consider `O=C(NO)[C@H]1CCCC[C@@H]1C(=O)Nc1ccc(C#Cc2ccc3ncccc3c2)cc1`, for which the Ki is over 4.95 µM.
Regarding `O=C(NO)[C@H]1CCCC[C@@H]1C(=O)Nc1ccc(OCc2ccccc2)cc1`, the Ki is over 4.95 µM.
Turning to `O=C1NCCCC[C@@H](C(=O)NCC(=O)N2CCOCC2)NC(=O)[C@H](Cc2ccc(-c3ccccc3C(F)(F)F)cc2)[C@@H](C(=O)NO)CCCO1`, the Ki was over 2 µM.
Compound `O=C(NO)[C@H]1CCCC[C@@H]1C(=O)Nc1ccc(COc2ccnc3ccccc23)cc1` gave a Ki of over 4.95 µM.
The compound `O=C(NO)[C@H]1CCC[C@@H]1C(=O)Nc1ccc(COc2ccnc3ccccc23)cc1` showed a Ki of over 4.95 µM.
Take `O=C(NO)[C@H]1CCC[C@@H]1C(=O)Nc1ccc(OCc2ccccc2)cc1`: the Ki is over 4.95 µM.
On the same count and under the same terms, with `O=C(NO)[C@H]1CCCC[C@@H]1C(=O)Nc1ccc(COc2cccc3ncccc23)cc1` the figure was over 4.95 µM.
In turn, `O=C(NO)[C@H]1CCC[C@@H]1C(=O)Nc1ccc(OCc2cc(Cl)cc(Cl)c2)cc1` registered a Ki of over 4.95 µM.
On the same count and under the same terms, with `O=C(NO)[C@H]1CCCC[C@@H]1C(=O)Nc1ccc(COc2ccc3ncccc3c2)cc1` the figure was over 4.95 µM; with `O=C(NO)[C@H]1CCC[C@@H]1C(=O)Nc1ccc(OCc2ccncc2)cc1`, over 4.95 µM.

The species entered for another test is Homo sapiens. Briefly: Compound tested for the in vitro inhibition of TNF-alpha production was determined by using LPS-stimulated human whole blood assay (WBA). In kind it is functional.
For `O=C(NO)[C@H]1CCC[C@@H]1C(=O)Nc1ccc(Cc2ccncc2)cc1`, the IC50 is over 50 µM.
In the case of `O=C(NO)[C@H]1CCCC[C@@H]1C(=O)Nc1ccc(C#Cc2ccc3ncccc3c2)cc1`, the IC50 was over 50 µM.
Consider `O=C(NO)[C@H]1CCCC[C@@H]1C(=O)Nc1ccc(OCc2ccccc2)cc1`, for which the IC50 was over 50 µM.
In turn, `O=C1NCCCC[C@@H](C(=O)NCC(=O)N2CCOCC2)NC(=O)[C@H](Cc2ccc(-c3ccccc3C(F)(F)F)cc2)[C@@H](C(=O)NO)CCCO1` returned an IC50 of over 0.07 µM.
In turn, `O=C(NO)[C@H]1CCCC[C@@H]1C(=O)Nc1ccc(COc2ccnc3ccccc23)cc1` showed an IC50 of over 50 µM.
Regarding `O=C(NO)[C@H]1CCC[C@@H]1C(=O)Nc1ccc(COc2ccnc3ccccc23)cc1`, the IC50 is over 50 µM.
Take `O=C(NO)[C@H]1CCC[C@@H]1C(=O)Nc1ccc(OCc2ccccc2)cc1`: the IC50 is over 50 µM.
`O=C(NO)[C@H]1CCCC[C@@H]1C(=O)Nc1ccc(COc2cccc3ncccc23)cc1` gave an IC50 of over 50 µM.
The compound `O=C(NO)[C@H]1CCC[C@@H]1C(=O)Nc1ccc(OCc2cc(Cl)cc(Cl)c2)cc1` returned an IC50 of over 50 µM.
The compound `O=C(NO)[C@H]1CCCC[C@@H]1C(=O)Nc1ccc(COc2ccc3ncccc3c2)cc1` showed an IC50 of over 50 µM.
`O=C(NO)[C@H]1CCC[C@@H]1C(=O)Nc1ccc(OCc2ccncc2)cc1` came in with an IC50 of over 50 µM.

The next test concerns the target Matrix metalloproteinase-9 (Homo sapiens, UniProt P14780). Briefly: Inhibition of matrix metalloprotease-9 (MMP-9).
In the case of `O=C(NO)[C@H]1CCC[C@@H]1C(=O)Nc1ccc(Cc2ccncc2)cc1`, the Ki was over 2130 nM.
For `O=C(NO)[C@H]1CCCC[C@@H]1C(=O)Nc1ccc(C#Cc2ccc3ncccc3c2)cc1`, the Ki was over 2130 nM.
In turn, `O=C(NO)[C@H]1CCCC[C@@H]1C(=O)Nc1ccc(OCc2ccccc2)cc1` displayed a Ki of over 2130 nM.
As for `O=C1NCCCC[C@@H](C(=O)NCC(=O)N2CCOCC2)NC(=O)[C@H](Cc2ccc(-c3ccccc3C(F)(F)F)cc2)[C@@H](C(=O)NO)CCCO1`, the Ki is over 2000 nM.
Turning to `O=C(NO)[C@H]1CCCC[C@@H]1C(=O)Nc1ccc(COc2ccnc3ccccc23)cc1`, the Ki was over 2130 nM.
Consider `O=C(NO)[C@H]1CCC[C@@H]1C(=O)Nc1ccc(COc2ccnc3ccccc23)cc1`, for which the Ki is over 2130 nM.
Consider `O=C(NO)[C@H]1CCC[C@@H]1C(=O)Nc1ccc(OCc2ccccc2)cc1`, for which the Ki was over 2130 nM.
`O=C(NO)[C@H]1CCCC[C@@H]1C(=O)Nc1ccc(COc2cccc3ncccc23)cc1` had a Ki of 1360 nM.
In the case of `O=C(NO)[C@H]1CCC[C@@H]1C(=O)Nc1ccc(OCc2cc(Cl)cc(Cl)c2)cc1`, the Ki is over 2130 nM.
On the same count and under the same terms, with `O=C(NO)[C@H]1CCCC[C@@H]1C(=O)Nc1ccc(COc2ccc3ncccc3c2)cc1` the figure was 876 nM; with `O=C(NO)[C@H]1CCC[C@@H]1C(=O)Nc1ccc(OCc2ccncc2)cc1`, over 2130 nM.

For a further test, the target named is 72 kDa type IV collagenase (Homo sapiens, UniProt P08253). Briefly: Inhibition of matrix metalloprotease-2 (MMP-2).
72 kDa type IV collagenase, sequence (P08253 whole entry): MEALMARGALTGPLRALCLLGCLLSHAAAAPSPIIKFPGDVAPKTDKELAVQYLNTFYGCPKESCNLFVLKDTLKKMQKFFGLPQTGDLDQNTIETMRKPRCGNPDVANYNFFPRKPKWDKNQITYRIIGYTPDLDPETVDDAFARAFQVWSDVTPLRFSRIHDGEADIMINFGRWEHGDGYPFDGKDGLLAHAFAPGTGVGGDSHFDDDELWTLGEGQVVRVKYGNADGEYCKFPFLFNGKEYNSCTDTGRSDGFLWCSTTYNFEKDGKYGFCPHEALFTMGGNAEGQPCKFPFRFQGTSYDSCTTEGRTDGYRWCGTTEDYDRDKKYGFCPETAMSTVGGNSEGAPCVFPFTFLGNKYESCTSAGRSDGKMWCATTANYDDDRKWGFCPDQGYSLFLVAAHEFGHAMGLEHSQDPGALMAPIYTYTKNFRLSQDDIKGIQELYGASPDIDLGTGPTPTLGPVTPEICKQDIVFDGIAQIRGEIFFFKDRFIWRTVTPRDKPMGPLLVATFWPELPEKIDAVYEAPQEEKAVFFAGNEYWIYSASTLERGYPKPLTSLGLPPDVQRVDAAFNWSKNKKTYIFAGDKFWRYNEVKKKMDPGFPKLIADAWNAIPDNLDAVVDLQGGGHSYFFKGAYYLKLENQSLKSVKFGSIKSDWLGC
As for `O=C(NO)[C@H]1CCC[C@@H]1C(=O)Nc1ccc(Cc2ccncc2)cc1`, the affinity corresponds to a Ki of 675 nM.
For `O=C(NO)[C@H]1CCCC[C@@H]1C(=O)Nc1ccc(C#Cc2ccc3ncccc3c2)cc1`, the Ki is over 3330 nM.
The compound `O=C(NO)[C@H]1CCCC[C@@H]1C(=O)Nc1ccc(OCc2ccccc2)cc1` had a Ki of over 3330 nM.
As to `O=C1NCCCC[C@@H](C(=O)NCC(=O)N2CCOCC2)NC(=O)[C@H](Cc2ccc(-c3ccccc3C(F)(F)F)cc2)[C@@H](C(=O)NO)CCCO1`, the Ki is over 2000 nM.
For `O=C(NO)[C@H]1CCCC[C@@H]1C(=O)Nc1ccc(COc2ccnc3ccccc23)cc1`, the Ki was over 3330 nM.
Compound `O=C(NO)[C@H]1CCC[C@@H]1C(=O)Nc1ccc(COc2ccnc3ccccc23)cc1` returned a Ki of over 3330 nM.
The same measure, in the same setting: the value for `O=C(NO)[C@H]1CCC[C@@H]1C(=O)Nc1ccc(OCc2ccccc2)cc1` was over 3330 nM; that for `O=C(NO)[C@H]1CCCC[C@@H]1C(=O)Nc1ccc(COc2cccc3ncccc23)cc1` was 585 nM; that for `O=C(NO)[C@H]1CCC[C@@H]1C(=O)Nc1ccc(OCc2cc(Cl)cc(Cl)c2)cc1` was over 3330 nM.
For the compound `O=C(NO)[C@H]1CCCC[C@@H]1C(=O)Nc1ccc(COc2ccc3ncccc3c2)cc1`, the Ki came to 1080 nM.
For `O=C(NO)[C@H]1CCC[C@@H]1C(=O)Nc1ccc(OCc2ccncc2)cc1`, the Ki was over 3330 nM.

Biological target in another test: not listed separately
Briefly: Inhibition of aggrecanase.
As to `O=C(NO)[C@H]1CCC[C@@H]1C(=O)Nc1ccc(Cc2ccncc2)cc1`, the Ki was over 500 nM.
`O=C(NO)[C@H]1CCCC[C@@H]1C(=O)Nc1ccc(C#Cc2ccc3ncccc3c2)cc1` yielded a Ki of over 500 nM.
Consider `O=C(NO)[C@H]1CCCC[C@@H]1C(=O)Nc1ccc(OCc2ccccc2)cc1`, for which the Ki was over 500 nM.
Same read-out and setting: with `O=C(NO)[C@H]1CCCC[C@@H]1C(=O)Nc1ccc(COc2ccnc3ccccc23)cc1` the figure was over 500 nM.
`O=C(NO)[C@H]1CCC[C@@H]1C(=O)Nc1ccc(COc2ccnc3ccccc23)cc1` displayed a Ki of over 500 nM.
Consider `O=C(NO)[C@H]1CCC[C@@H]1C(=O)Nc1ccc(OCc2ccccc2)cc1`, for which the Ki is over 500 nM.
As for `O=C(NO)[C@H]1CCCC[C@@H]1C(=O)Nc1ccc(COc2cccc3ncccc23)cc1`, the Ki is over 500 nM.
Still for that read-out and setting: the value for `O=C(NO)[C@H]1CCC[C@@H]1C(=O)Nc1ccc(OCc2cc(Cl)cc(Cl)c2)cc1` was over 500 nM.
On the same count and under the same terms, the value for `O=C(NO)[C@H]1CCCC[C@@H]1C(=O)Nc1ccc(COc2ccc3ncccc3c2)cc1` was over 500 nM; that for `O=C(NO)[C@H]1CCC[C@@H]1C(=O)Nc1ccc(OCc2ccncc2)cc1` was over 500 nM.

By IC50 is commonly meant the point on the concentration scale where inhibition reaches its midpoint. Read a high IC50 as a need for much substance. By Ki is commonly meant the equilibrium dissociation constant of an inhibitor or competing ligand from its target.
